Here are results for 2 compounds from ChEMBL document CHEMBL1201862, “PubChem BioAssay data set” (2004).

For assay [1], the target named is ORF 73 (Human herpesvirus 8, UniProt O40947). Kind of assay: KSHV LANA DNA-binding disruption – biochemical, fluorescence polarization, cherry-picked samples, dose response (AID 504725).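 Note: fluorescence polarization of a labeled DNA duplex reporting LANA DNA binding; potency is for inhibitors that block LANA binding to the DNA.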 More on the design: species or system Human gammaherpesvirus 8. In general terms: In fluorescence polarisation assays a small probe gives low polarisation when free and higher when bound to something large.
ORF 73, sequence (O40947 whole entry): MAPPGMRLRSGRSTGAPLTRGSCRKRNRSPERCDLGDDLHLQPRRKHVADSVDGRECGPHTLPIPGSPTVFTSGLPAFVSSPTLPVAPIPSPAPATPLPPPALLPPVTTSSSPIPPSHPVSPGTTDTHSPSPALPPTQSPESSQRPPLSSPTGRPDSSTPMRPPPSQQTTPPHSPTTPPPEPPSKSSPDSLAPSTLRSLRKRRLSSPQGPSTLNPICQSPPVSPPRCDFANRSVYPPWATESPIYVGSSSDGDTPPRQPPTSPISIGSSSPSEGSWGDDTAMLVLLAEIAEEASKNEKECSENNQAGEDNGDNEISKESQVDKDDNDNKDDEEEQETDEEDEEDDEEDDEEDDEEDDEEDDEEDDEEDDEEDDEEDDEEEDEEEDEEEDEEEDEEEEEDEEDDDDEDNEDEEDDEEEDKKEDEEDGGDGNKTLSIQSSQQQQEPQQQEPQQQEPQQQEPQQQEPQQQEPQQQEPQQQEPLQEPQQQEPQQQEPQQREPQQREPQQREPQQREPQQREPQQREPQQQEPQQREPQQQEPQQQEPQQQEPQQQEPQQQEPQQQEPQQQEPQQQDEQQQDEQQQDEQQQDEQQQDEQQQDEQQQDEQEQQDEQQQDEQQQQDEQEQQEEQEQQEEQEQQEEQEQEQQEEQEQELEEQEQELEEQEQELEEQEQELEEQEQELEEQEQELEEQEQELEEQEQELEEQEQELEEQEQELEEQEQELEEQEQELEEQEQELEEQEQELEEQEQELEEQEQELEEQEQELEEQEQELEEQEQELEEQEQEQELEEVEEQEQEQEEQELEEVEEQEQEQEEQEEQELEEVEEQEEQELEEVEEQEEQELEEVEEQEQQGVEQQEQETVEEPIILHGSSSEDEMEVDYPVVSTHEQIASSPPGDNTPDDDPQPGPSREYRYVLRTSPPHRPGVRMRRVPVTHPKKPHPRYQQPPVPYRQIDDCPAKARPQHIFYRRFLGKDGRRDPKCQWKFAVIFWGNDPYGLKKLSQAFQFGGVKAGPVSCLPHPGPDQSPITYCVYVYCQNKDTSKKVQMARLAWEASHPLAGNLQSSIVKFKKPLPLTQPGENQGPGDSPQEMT

The target in assay [2] is Serine/threonine-protein phosphatase (Homo sapiens, UniProt Q9BPW0). Kind of assay: Counterscreen for inhibitors of PP1: fluorescence-based biochemical high throughput dose response assay to identify inhibitors of Protein Phosphatase 5 (PP5). [Related pubchem assays: 2034 (Summary (PP5 inhibitors)), 1987 (PP5 inhibitors in singlate), 2235 (PP1 inhibitors in singlate)]. In general terms: Counterscreens check selectivity or assay interference.
Serine/threonine-protein phosphatase, sequence (Q9BPW0 whole entry): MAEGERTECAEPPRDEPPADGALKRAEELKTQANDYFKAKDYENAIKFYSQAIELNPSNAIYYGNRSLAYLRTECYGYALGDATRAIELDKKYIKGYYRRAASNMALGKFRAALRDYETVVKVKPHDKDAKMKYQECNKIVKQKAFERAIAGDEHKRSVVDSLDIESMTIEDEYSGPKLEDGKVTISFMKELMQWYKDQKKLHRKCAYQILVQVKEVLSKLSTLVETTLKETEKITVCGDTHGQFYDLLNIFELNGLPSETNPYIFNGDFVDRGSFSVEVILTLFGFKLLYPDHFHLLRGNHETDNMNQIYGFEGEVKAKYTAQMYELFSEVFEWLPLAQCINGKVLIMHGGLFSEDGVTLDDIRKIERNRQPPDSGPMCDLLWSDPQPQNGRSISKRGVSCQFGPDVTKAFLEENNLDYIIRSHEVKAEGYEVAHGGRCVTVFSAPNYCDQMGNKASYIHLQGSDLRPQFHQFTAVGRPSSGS

For assay [3], the target named is T1, Carboxy-terminal domain RNA polymerase II polypeptide A small phosphatase 1 (Homo sapiens, UniProt Q9GZU7).
T1 sequence (Q9GZU7 whole entry): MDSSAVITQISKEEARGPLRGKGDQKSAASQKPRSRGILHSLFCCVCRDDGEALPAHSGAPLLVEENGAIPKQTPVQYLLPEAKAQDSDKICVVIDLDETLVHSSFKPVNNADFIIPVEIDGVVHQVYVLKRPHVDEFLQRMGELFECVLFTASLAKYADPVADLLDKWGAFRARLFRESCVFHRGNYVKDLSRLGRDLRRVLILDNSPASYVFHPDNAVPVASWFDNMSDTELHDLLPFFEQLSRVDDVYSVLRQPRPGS
The experiment in a line: CTDSP1 inhibitors, concentration-response, biochemical, absorbance readout, ultra-high-throughput screen actives (AID 540297). In kind it is functional.

The target of assay [4] is T2, Apoptotic protease-activating factor 1 (Homo sapiens, UniProt O14727).
T2 sequence (O14727 whole entry): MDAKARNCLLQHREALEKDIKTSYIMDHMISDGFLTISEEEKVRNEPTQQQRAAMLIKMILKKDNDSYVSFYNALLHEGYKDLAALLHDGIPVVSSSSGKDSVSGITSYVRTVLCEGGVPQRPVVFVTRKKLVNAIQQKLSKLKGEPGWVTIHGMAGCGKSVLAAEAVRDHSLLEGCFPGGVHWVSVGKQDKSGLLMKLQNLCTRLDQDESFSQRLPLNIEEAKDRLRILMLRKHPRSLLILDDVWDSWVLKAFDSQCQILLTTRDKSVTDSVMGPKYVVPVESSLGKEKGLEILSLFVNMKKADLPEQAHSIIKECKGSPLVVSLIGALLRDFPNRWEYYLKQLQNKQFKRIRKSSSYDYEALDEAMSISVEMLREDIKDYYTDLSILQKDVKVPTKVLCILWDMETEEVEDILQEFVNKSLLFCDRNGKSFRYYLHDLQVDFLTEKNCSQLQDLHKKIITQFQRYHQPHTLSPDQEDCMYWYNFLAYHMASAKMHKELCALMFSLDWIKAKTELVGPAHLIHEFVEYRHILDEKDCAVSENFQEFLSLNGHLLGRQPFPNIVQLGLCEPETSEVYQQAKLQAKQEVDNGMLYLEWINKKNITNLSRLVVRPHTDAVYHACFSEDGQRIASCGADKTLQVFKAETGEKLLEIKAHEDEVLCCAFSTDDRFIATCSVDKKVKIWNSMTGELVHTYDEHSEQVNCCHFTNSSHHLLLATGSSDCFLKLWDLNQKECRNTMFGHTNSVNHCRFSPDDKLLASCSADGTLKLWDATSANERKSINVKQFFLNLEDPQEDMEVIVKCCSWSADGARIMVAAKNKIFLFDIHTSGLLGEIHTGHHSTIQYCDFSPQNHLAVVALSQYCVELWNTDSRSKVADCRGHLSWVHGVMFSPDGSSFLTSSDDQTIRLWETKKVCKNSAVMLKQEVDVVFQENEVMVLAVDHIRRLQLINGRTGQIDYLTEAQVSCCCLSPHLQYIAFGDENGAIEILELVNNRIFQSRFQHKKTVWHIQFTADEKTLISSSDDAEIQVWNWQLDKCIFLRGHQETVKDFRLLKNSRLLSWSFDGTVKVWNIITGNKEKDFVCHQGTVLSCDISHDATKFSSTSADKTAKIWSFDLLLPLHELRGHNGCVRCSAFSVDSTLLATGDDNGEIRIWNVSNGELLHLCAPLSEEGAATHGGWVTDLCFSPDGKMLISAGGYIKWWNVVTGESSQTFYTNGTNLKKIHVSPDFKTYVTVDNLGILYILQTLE
The experiment in a line: activation of Apaf-1 mediated apoptosis – fluorescent, uHTS hits, dose response (AID 588554). In kind it is functional.

The target of assay [5] is Serine/threonine-protein phosphatase PP1-alpha catalytic subunit (Homo sapiens, UniProt P62136). The experiment in a line: inhibition of protein phosphatase 1 activity – biochemical, fluorescence, dose response (AID 2403).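 Note: phosphatase turnover of OMFP into fluorescent 3-O-methylfluorescein.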
Serine/threonine-protein phosphatase PP1-alpha catalytic subunit, sequence (P62136 whole entry): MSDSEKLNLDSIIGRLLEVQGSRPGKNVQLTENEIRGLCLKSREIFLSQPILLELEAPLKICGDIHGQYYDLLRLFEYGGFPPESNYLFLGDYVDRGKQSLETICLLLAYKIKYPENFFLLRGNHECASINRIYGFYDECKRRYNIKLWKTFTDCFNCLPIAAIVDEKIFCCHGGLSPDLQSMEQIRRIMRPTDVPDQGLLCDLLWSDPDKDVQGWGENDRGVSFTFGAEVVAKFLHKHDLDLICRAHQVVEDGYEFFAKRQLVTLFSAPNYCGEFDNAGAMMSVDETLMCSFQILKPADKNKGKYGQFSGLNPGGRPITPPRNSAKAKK
Assay [6] has as its target T3, Tyrosine-protein phosphatase non-receptor type 22 (Homo sapiens, UniProt Q9Y2R2).
T3 sequence (Q9Y2R2 whole entry): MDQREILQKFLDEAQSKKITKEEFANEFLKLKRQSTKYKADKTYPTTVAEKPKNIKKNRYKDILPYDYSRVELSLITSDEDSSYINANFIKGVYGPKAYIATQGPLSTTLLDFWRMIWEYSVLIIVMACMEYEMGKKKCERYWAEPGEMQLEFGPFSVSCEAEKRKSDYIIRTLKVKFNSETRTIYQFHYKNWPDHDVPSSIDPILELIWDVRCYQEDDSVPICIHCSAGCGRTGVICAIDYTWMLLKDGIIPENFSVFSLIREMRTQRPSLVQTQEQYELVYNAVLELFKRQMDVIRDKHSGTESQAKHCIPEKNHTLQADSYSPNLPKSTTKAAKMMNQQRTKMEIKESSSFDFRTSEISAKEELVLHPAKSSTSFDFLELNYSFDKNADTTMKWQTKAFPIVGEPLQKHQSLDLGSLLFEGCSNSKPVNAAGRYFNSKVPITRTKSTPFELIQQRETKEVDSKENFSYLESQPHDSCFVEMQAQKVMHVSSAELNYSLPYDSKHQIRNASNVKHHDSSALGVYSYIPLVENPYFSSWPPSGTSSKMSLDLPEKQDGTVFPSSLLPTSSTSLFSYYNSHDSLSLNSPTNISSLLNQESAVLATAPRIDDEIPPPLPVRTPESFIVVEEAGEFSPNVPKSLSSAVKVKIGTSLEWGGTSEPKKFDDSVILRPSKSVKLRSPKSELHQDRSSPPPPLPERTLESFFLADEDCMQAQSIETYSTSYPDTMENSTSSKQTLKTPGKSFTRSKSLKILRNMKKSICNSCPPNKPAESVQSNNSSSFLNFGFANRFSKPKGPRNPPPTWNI
Kind of assay: PTPN22 lymphoid phosphatase activity blockers – biochemical, fluorescence intensity, uHTS (AID 1779).

Assay [7] concerns the target T4, Tyrosine-protein phosphatase non-receptor type 7 (Homo sapiens, UniProt P35236).
T4 sequence (P35236 whole entry): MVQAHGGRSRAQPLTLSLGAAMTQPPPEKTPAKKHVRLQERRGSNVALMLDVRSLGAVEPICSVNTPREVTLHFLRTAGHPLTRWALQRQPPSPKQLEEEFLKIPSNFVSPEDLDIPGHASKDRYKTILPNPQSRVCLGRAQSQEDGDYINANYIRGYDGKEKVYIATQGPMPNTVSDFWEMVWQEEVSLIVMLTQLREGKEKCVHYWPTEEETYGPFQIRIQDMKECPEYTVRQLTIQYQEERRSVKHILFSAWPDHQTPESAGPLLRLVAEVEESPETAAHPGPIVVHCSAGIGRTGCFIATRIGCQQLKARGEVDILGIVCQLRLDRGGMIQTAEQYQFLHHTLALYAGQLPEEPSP
In kind it is functional.

Assay [8] concerns the target DNA (cytosine-5)-methyltransferase 1 (Homo sapiens, UniProt P26358). Kind of assay: inhibition of DNA methylation by DNMT1 – biochemical, fluorescent molecular beacon, confirmation (AID 602386). In kind it is functional.
Assay [9] has as its target T3, Tyrosine-protein phosphatase non-receptor type 22. In kind it is functional.
For assay [10], the target named is T4, Tyrosine-protein phosphatase non-receptor type 7. The experiment in a line: HTS HePTP Fluorescent Assay using OMFP substrate for In Vitro dose response studies. [Related pubchem assays (depositor defined):AID1059, AID1077, AID1784, AID2068, AID2085, AID435032, AID521]. In kind it is functional.
In assay [11] the target is Beta-adrenergic receptor kinase 1 (Homo sapiens, UniProt P25098). Kind of assay: aptamer displacement from bead-bound GRK2 – biochemical, cherry pick 1, bead flow cytometry, dose response (AID 504500). Background: Flow cytometry measures light scatter and fluorescence of single cells or particles in a stream.
Beta-adrenergic receptor kinase 1, sequence (P25098 whole entry): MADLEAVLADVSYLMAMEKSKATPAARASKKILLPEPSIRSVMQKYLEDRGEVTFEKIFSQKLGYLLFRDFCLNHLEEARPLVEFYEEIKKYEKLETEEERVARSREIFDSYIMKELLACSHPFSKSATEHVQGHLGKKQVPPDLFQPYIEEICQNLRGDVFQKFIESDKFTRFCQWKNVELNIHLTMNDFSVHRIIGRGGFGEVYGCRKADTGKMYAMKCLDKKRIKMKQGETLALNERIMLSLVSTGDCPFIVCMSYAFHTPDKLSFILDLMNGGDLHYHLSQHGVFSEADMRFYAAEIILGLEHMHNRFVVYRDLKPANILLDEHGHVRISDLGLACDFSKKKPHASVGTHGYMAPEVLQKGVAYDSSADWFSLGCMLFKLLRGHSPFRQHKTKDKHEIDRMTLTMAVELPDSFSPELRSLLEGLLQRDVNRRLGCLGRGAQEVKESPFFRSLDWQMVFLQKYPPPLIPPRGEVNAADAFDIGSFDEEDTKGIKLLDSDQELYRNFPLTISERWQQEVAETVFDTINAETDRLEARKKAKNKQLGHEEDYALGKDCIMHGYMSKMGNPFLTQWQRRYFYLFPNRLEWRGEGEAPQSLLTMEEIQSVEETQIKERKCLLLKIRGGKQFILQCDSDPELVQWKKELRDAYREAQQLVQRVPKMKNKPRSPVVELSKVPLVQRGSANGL
Assay [12] has as its target T3, Tyrosine-protein phosphatase non-receptor type 22. In kind it is functional. The source holds these as a separate data set.
Assay [13] has the same target. Kind of assay: LYP1 Fluorescent Assay using OMFP substrate for In Vitro dose response studies. [Related pubchem assays (depositor defined):AID1779, AID1784, AID435024].
Assay [14] concerns the target DNA topoisomerase (Yersinia pestis, UniProt A0A2S9PM60). The experiment in a line: Yersinia topoisomerase I cleavage product accumulation – biochemical, cherry-pick, dose response (AID 588525).

Molecules are shown by their SMILES. The source made the active and inactive calls.

DNA (cytosine-5)-methyltransferase 1, sequence (P26358 whole entry): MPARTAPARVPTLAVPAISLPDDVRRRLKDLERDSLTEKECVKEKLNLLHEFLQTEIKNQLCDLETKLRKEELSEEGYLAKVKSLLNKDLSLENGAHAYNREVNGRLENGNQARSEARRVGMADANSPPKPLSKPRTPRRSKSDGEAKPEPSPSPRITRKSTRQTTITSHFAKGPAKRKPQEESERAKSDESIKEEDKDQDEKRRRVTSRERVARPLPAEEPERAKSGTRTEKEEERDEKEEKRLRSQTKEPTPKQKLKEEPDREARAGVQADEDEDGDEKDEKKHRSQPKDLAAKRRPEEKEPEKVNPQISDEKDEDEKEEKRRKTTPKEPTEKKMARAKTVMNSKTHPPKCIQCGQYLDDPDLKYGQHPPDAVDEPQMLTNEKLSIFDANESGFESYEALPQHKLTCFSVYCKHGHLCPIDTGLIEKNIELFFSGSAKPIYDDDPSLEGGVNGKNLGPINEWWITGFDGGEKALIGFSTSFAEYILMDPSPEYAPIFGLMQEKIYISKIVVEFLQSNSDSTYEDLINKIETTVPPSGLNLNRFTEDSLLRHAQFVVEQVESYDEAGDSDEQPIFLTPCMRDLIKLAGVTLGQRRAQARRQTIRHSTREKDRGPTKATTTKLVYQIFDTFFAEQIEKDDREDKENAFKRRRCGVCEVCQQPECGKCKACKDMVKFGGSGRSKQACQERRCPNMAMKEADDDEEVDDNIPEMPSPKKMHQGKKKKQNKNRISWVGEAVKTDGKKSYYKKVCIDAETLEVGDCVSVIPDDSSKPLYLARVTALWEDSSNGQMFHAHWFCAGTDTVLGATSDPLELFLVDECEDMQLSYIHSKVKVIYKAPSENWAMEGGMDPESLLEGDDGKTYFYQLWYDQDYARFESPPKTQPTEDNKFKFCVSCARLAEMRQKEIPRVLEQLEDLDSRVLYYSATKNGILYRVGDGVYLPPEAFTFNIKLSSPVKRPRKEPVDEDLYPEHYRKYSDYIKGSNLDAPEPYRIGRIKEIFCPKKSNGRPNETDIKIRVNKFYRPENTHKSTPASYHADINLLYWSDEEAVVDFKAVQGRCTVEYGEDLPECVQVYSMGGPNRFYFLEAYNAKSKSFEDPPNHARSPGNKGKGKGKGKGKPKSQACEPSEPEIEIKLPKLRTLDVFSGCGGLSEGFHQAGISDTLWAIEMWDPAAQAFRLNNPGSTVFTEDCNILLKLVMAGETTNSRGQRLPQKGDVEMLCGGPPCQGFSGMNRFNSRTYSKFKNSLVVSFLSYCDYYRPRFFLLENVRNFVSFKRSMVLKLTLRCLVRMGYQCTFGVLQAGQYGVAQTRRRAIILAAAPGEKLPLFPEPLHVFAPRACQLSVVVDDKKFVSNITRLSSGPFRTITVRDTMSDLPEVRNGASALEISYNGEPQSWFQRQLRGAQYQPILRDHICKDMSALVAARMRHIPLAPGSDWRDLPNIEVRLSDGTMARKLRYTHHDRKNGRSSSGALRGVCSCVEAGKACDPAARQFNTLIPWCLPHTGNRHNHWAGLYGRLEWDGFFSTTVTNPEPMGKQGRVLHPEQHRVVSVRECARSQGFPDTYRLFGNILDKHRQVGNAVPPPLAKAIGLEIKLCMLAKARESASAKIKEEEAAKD
DNA topoisomerase, sequence (A0A2S9PM60 whole entry): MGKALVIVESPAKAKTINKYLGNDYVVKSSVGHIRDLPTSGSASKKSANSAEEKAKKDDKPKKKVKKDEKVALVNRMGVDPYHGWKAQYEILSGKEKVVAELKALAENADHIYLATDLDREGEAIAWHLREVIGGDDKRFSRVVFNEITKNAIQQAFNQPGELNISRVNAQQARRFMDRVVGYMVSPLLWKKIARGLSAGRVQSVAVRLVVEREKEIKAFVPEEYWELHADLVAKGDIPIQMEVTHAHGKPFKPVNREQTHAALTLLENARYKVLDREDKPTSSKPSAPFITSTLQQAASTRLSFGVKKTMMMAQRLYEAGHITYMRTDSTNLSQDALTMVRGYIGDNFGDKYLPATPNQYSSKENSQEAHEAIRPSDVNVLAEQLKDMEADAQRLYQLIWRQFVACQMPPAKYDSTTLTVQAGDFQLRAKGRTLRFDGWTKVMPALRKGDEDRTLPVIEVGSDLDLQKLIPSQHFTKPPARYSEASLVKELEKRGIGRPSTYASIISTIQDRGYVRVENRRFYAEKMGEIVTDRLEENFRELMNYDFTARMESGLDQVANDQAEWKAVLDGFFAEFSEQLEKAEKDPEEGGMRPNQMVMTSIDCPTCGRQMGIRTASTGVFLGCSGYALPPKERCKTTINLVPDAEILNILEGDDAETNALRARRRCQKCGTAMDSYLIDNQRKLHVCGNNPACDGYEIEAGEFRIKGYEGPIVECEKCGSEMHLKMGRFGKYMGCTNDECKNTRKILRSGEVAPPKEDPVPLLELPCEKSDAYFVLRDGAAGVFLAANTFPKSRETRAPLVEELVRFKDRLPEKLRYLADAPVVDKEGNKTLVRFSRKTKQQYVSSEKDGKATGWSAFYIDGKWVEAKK

The AC50 is the midpoint of the concentration-response curve, whichever way the signal moves. Usually IC50 stands for the concentration that inhibits the measured activity by half. One may read the EC50 as the concentration at which the effect is half-maximal. Regarding `CC(C)(CS(=O)(=O)[O-])NC(=O)CC[N+](C)(C)CCO`, in assay [1], the concentration at half-maximal activity (AC50) is 39.8 µM (active). The concentration for half-maximal inhibition (IC50) in assay [2] was > 67 µM (not active); in assay [3], 0.453 µM (active); in [5] it was 2.46 µM (active); in assay [6], 10.9 µM (active); in assay [7], 17.9 µM (active); in assay [8], 3.6 µM (active). Besides, the concentration for half-maximal inhibition (IC50) in assay [9] is 5.97 µM (active); in assay [10], 28.6 µM (active); in assay [12] it was 4.08 µM (active); in assay [13] it was 4.28 µM (active). Also, the figures for the concentration giving a half-maximal response (EC50) in assay [4] and in assay [11] were 1.16 µM (active) and 0.67 µM (active), respectively.

For the compound `CCOc1ccc(N2C(=O)CC(N3CCN(c4ccc(C(=O)c5ccncc5)cc4)CC3)C2=O)cc1` (centres undefined), the concentration at half-maximal activity (AC50) in [14] was 10.6 µM (active).
